Laboratory results taken from patent US8012971B2, “Therapeutic agent for chronic obstructive pulmonary disease” (Dainippon Sumitomo Pharma Co., Ltd., priority 2005, dated 2011).

Legend:
Type in all cases: in vivo
[1] = tested on: Guinea Pig Chronic Obstructive Pulmonary Disease (COPD) Model; assay: Histological investigations of lung in guinea pig COPD model
Procedure: (§1) An evaluation was carried out as follows according to a report of Kosuke MORIZUMI, Junichi FUCHIGAMI et al., 2002, The 75th Annual Meeting of the Japanese Pharmacological Society (2002) Abstract No. P-259, “Study of a chronic obstructive pulmonary disease-Effects of theophylline on respiratory function and lung function of guinea pigs in an exposure of cigarette smoke.”
(§2) Male Hartley strain guinea pigs (purchased from Japan SLC, Inc.) were taken in a cigarette exposure holder (RMH-TUBES, manufactured by Muenster Ltd.) to secure them to an exposure chamber (Flow-past type nose-only inhalation chamber, manufactured by Muenster Ltd.), and allowed to inhale cigarette smoke (Hi-Lite, manufactured by Japan Tobacco Inc.) for 60 minutes per day for 5 days in a week, totally 4 weeks using a smoking exposure equipment (Hamburg II, manufactured by Borgwaldt Technik), while the exposure was carried out for 4 days in the 4th week. • (2) Drug Administrations
(§3) Each 0.5% MC suspension of a test drug was orally administered daily in 5 ml/weight (kg) once a day for 25 days from the first day of the exposure. To a sham-exposure group and a control group was orally administered a 0.5% MC suspension in a similar manner. Any oral administrations were carried out 0.5 to 1 hours before exposures on a cigarette-smoke-exposure day or after measurements when measuring respiratory functions. A drug was not administered on the day for measurement of respiratory functions after finishing the 4th week of the exposure. • (3) Measurements of Airway Resistance
After collection of BALF, trachea and lung were isolated. The ligation site of the left lung was opened, injected neutral formalin buffer into trachea, bronchi and lung at the pressure of 20 cm H2O via cannula fixed on the side of the lung, and the lung tissue was extended to be fixed. According to a conventional method, tissue section samples were produced using posterior lobe of the left lung and hematoxylin-eosin (HE) stain was carried out. Any other lung tissues were stored in neutral formalin buffers. Drug efficacies of the produced tissue samples were evaluated by scoring tissue changes under the microscope. The criteria of scores were shown as follows: −: none, ±: minimal, +: mild, ++: moderate, +++: severe. Each quantification was calculated as 0, 1, 2, 3, 4.

[2] = tested on: Guinea Pig Chronic Obstructive Pulmonary Disease (COPD) Model; assay: Inflammatory cells in bronchoalveolar fluid in guinea pig COPD model; settings: for Cell number in BALF, Macrophage / Cell number in BALF, Neutrophil / Cell number in BALF, Total: mean ± SEM of 8 animals
Procedure: as §1, §2, §3
After measuring lung functions, animals were exsanguinated to death and opened the thorax, ligated the left bronchial bifurcation, and then injected saline (2.5 mL) into the right lung and aspirated the same via fixed cannula on measuring lung functions repeatedly in twice (totally 5 mL), and the recovery solution was obtained as a bronchoalveolar lavage fluid (BALF). BALF was centrifuged (230×g, 4° C., for 10 minutes) to give cell pellets. The pellets were suspended in saline (0.5 mL), and to a part of the suspension was added Turk solution (manufactured by Wako Pure Chemical Industries, Ltd.) so as to dilute 10 to 20 folds. Leukocyte numbers per 0.1 μL were measured by a blood cell counting chamber and leukocyte numbers per 1 μL were calculated. Cell suspensions were prepared again, smears were prepared using about 2000 to 3000 total cell numbers, May-Grunwald-Giemsa stain was carried out, leukocyte numbers were counted under the microscope, a ratio of each leukocyte number to total leukocyte number was obtained, and each cell number per 1 μL was calculated based on the ratio. Results are shown in each cell number per 1 μL.

[3] = tested on: Guinea Pig Chronic Obstructive Pulmonary Disease (COPD) Model; assay: Lung functions (FRC, RV) in guinea pig COPD model; settings: for Functional residual capacity (FRC) / Residual volume (RV): after 4th week of exposure, mean ± SEM of 8 animals
Procedure: as §1, §2, §3
After measuring airway resistances in the 4th week, animals were cut open their tracheas under urethane-anesthetizing ([…], i.p.), cannulated on the side of lung, fixed by ligation, and measured residual volumes (RV) and functional residual capacities (FRC) by lung functions measuring system (Biosystem for maneuver, manufactured by Buxco Electronics).

[4] = tested on: Guinea Pig Chronic Obstructive Pulmonary Disease (COPD) Model; assay: Airway resistance (sRaw) in guinea pig COPD model (cigarette smoke exposure); settings: for Specific airway resistance (sRaw) % increase from pre value: 1 week of cigarette smoke exposure, mean ± SEM of 8 animals
Procedure: as §1, §2, §3
Specific airway resistances (sRaw) in guinea pigs were measured during awakening by double-flow plethysmography using general respiratory function analysis system (PULMOS-I, manufactured by M•I•P•S Corp.). Measurements were carried out before the exposure and on the day after finishing the 1st, 2nd, 3rd and 4th weeks of the exposure. Each 100 breathings of respiratory functions were individually measured, and the average values were obtained as measured values. A rate of change of airway resistances was calculated by the following equation. Rate of change of each measured week (%)=100×(a measured value on each measured date−a measured value before starting exposures of cigarette smoke)/a measured value before starting exposures of cigarette smoke

[5] = 30 mg/kg/day for 25 days, 8 animals
[6] = groups of 10 mg/kg and 30 mg/kg, result in words

CNC(=O)NCCn1c(-c2ccc(N3CCOCC3)cc2)csc1=Nc1cccc(F)c1 [SMP-028, N-{2-[2-[(3-fluorophenyl)imino]-4-(4-morpholinophenyl)-thiazol-3(2H)-yl]ethyl}-N′-methylurea]
Number of animals with grade ++ (moderate): D. Accumulation, foamy/macrophage-like cell, alveolus [1, 5]: 0
Number of animals with grade ++ (moderate): E. Cellular infiltration, neutrophil, alveolus [1, 5]: 0
Number of animals with grade +++ (severe): A. Hyperplasia, epithelial cell, bronchus [1, 5]: 0
Number of animals with grade +++ (severe): B. Cellular exudation, neutrophil/eosinophil, lumen, bronchiole [1, 5]: 0
Number of animals with grade +++ (severe): C. Thickening, alveolar wall [1, 5]: 0
Number of animals with grade +++ (severe): D. Accumulation, foamy/macrophage-like cell, alveolus [1, 5]: 0
Number of animals with grade +++ (severe): E. Cellular infiltration, neutrophil, alveolus [1, 5]: 0
Number of animals with grade ± (minimal): A. Hyperplasia, epithelial cell, bronchus [1, 5]: 0
Number of animals with grade ± (minimal): B. Cellular exudation, neutrophil/eosinophil, lumen, bronchiole [1, 5]: 0
Number of animals with grade ± (minimal): C. Thickening, alveolar wall [1, 5]: 2
Number of animals with grade ± (minimal): D. Accumulation, foamy/macrophage-like cell, alveolus [1, 5]: 3
Number of animals with grade ± (minimal): E. Cellular infiltration, neutrophil, alveolus [1, 5]: 0
Number of animals with grade − (none): A. Hyperplasia, epithelial cell, bronchus [1, 5]: 8
Number of animals with grade − (none): B. Cellular exudation, neutrophil/eosinophil, lumen, bronchiole [1, 5]: 8
Number of animals with grade − (none): C. Thickening, alveolar wall [1, 5]: 5
Number of animals with grade − (none): D. Accumulation, foamy/macrophage-like cell, alveolus [1, 5]: 3
Number of animals with grade − (none): E. Cellular infiltration, neutrophil, alveolus [1, 5]: 8
accumulation of foamy cells/macrophage-like cells within the alveoli and thickening of the alveolar wall [1, 6]: tended to be suppressed
scored pathological findings (FIG. 2) relative to control group ([1]; scores 0-4 for grades − to +++, result in words): tended to be dose-dependently suppressed
Cell number in BALF, Macrophage ([2]; 10 mg/kg/day oral): 2506 ± 313 ^NS cells/μL
Cell number in BALF, Neutrophil ([2]; 10 mg/kg/day oral): 1114 ± 193 ^NS cells/μL
Cell number in BALF, Total ([2]; 10 mg/kg/day oral): 4044 ± 419 ^NS cells/μL
Cell number in BALF, Macrophage ([2]; 30 mg/kg/day oral): 2497 ± 483 ^NS cells/μL
Cell number in BALF, Neutrophil ([2]; 30 mg/kg/day oral): 772 ± 277 ^NS cells/μL
Cell number in BALF, Total ([2]; 30 mg/kg/day oral): 3897 ± 783 ^NS cells/μL
infiltrations of the inflammatory cells in the airway [2, 6]: tended to be suppressed
Functional residual capacity (FRC) ([3]; 10 mg/kg/day oral): 7.213 ± 0.374 ^NS mL
Residual volume (RV) ([3]; 10 mg/kg/day oral): 3.236 ± 0.537 ^NS mL
Functional residual capacity (FRC) ([3]; 30 mg/kg/day oral): 7.066 ± 0.353 ^NS mL
Residual volume (RV) ([3]; 30 mg/kg/day oral): 2.649 ± 0.649 ^NS mL
increases of functional residual capacity (FRC) and residual volume (RV) [3, 6]: tended to be suppressed
Specific airway resistance (sRaw) % increase from pre value ([4]; 10 mg/kg/day oral): 25.54 ± 10.91%
Specific airway resistance (sRaw) % increase from pre value ([4]; 30 mg/kg/day oral): 15.02 ± 4.07%
increases of airway resistance by cigarette smoking stimulation [4, 6]: tended to be suppressed
